In the test the target is T1, Human JNK 3 (Homo sapiens, UniProt P53779).
T1 construct: made in house; host or cells: Escherichia coli
In words: Determination of JNK 3 Inhibition. The test is classed as biochemical. The note with it: GST-JNK 3 enzyme, GST-c-Jun (1-169) substrate, [γ-33P]ATP, 3.33 μM ATP, 30 minutes, SPA beads. The method, then:
Test Example 1 Determination of JNK 3 Inhibition
Human JNK 3 was expressed as a fusion protein (GST-JNK 3) with glutathione S-transferase (GST) in Escherichia coli and was purified using glutathione Sepharose 4B beads. The amino acid sequence 1-169 of c-Jun was […] as a fusion protein (GST-c-Jun) with GST in Escherichia coli, was purified using glutathione Sepharose 4B beads and was used as a substrate. A test compound was diluted with 100% dimethyl sulfoxide into 10 mM and was then further diluted with 10% aqueous dimethyl sulfoxide solution to yield a dilution series. To each well of 96-well OPTI plate (available from Packard) were placed 20 μl of the diluted compound, 30 μl of a substrate solution (1.2 μg of GST-c-Jun, […], 0.2 μCi of [γ-^33P]ATP, 25 mM of HEPES pH=7.5, 10 mM of magnesium acetate, and 3.33 μM of ATP), and 50 μl of an enzyme solution (0.04 μg of GST-JNK 3, 25 mM of HEPES pH=7.5, and 10 mM magnesium acetate) up to 100 μl, and the mixture was allowed to react for 30 minutes. After terminating the reaction by adding 100 μl of a reaction terminator (80 mM ATP, 5 mg/ml glutathione SPA beads (available from Amersham Pharmacia Biotech)), the reaction mixture was shaken for 30 minutes. The mixture was centrifuged at room temperature at 1000×g for 5 minutes, and the emission intensity thereof was determined on a TopCount™ illuminator (available from Packard). The activity is expressed by the 50% inhibitory concentration on the enzymatic activity of JNK, i.e., IC50 (nM).

T1 sequence (P53779 whole entry): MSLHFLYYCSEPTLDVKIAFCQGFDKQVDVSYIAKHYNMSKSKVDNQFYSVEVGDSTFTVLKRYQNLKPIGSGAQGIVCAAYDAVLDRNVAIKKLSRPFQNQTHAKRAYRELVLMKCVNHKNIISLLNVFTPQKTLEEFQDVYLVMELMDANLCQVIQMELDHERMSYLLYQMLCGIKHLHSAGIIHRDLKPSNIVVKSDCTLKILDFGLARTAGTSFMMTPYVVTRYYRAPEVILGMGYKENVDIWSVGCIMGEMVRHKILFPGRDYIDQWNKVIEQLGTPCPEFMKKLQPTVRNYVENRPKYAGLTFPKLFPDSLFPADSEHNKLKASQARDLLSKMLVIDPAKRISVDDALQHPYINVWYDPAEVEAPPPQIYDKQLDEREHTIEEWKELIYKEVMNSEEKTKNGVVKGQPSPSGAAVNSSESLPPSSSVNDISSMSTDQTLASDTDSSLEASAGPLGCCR

Molecule `O=C(NC1CC1)c1cccc2c1C=Cc1cccc3[nH]nc-2c13` [Example 21, N8-Cyclopropyl-2H-benzo[6,7]cyclohepta[cd]indazole-8-carboxamide] registered an IC50 of at most 0.3 µM.

As to `Cc1ccc2[nH]nc3c2c1NC(=O)c1ccccc1-3` [Example 25, 5-Methyl-6,7-dihydro-2H-benzo[5,6]azepino[4,3,2-cd]indazol-7-one], the IC50 was at most 0.3 µM. `O=C(NCc1ccco1)c1cccc2c1C=Cc1cccc3[nH]nc-2c13` [Example 20, N8-(2-Furylmethyl)-2H-benzo[6,7]cyclohepta[cd]indazole-8-carboxamide] yielded an IC50 of at most 0.3 µM.

For `Nc1cccc2c1CCc1cccc3[nH]nc-2c13` [Example 8, 6,7-Dihydro-2H-benzo[6,7]cyclohepta[cd]indazole-8-amine], the IC50 is at most 0.3 µM. Then `OCc1cccc2c1CCc1cccc3[nH]nc-2c13` [Example 1, 6,7-Dihydro-2H-benzo[6,7]cyclohepta[cd]indazol-8-ylmethanol], with at most 0.3 µM; and `C1=Cc2cccc3[nH]nc(c23)-c2ccccc21` [Example 9, 2H-Benzo[6,7]cyclohepta[cd]indazole], with at most 0.3 µM; and `Cc1cc(Br)c2[nH]nc3c2c1NC(=O)c1ccccc1-3` [Example 26, 3-Bromo-5-methyl-6,7-dihydro-2H-benzo[5,6]azepino[4,3,2-cd]indazol-7-one], with at most 0.3 µM. Then `OCc1cccc2c1C=Cc1cccc3[nH]nc-2c13` [Example 6, 2H-Benzo[6,7]cyclohepta[cd]indazol-8-ylmethanol], with at most 0.3 µM.

Usually IC50 stands for the point on the concentration scale where inhibition reaches its midpoint. Read a high IC50 as weaker potency in that assay.

For the origin of these results see patent publication US7390797B2, “Fused indazole compounds” (Eisai Co., Ltd., priority 2002, dated 2008).
